Reference: PMC10488193, “Evaluation of the Chemical Stability, Membrane Permeability and Antiproliferative Activity of Cyclic Diarylheptanoids from European Hornbeam (Carpinus betulus L.)” (International Journal of Molecular Sciences, 2023)

Legend:
[1] = tested on: HT-29 (colorectal carcinoma); test: In vitro antiproliferative activity, Alamar Blue assay; type: cell-based; details: Homo sapiens; HT-29, 24 h treatment, then three days culture, n = 2; read-out: IC50 ± SD
Description: (§1) For the experiments, the following human cell lines were used: A2058 (melanoma, derived from metastatic site: lymph node), HepG2 (hepatocellular carcinoma), U87 (glioblastoma), HT-29 (colorectal carcinoma) and HL-60 (acute promyelocytic leukaemia). Cell lines were generous gifts from Dr. […] (Department of Experimental Pharmacology, National Institute of Oncology, Budapest, Hungary). […] The cultures were maintained at 37 °C in a humidified atmosphere with 5% CO2. The cells were grown to confluency and then divided into 96-well tissue culture plates (Sarstedt, Nümbrecht, Germany) with an initial cell number of 5000 cells/well. Cells were incubated at 37 °C in a 5% CO2 humidified atmosphere overnight. Before the assay, 50 μL of the supernatant was removed and replaced with a 50 μL serum-free medium (SFM). […] The cells were treated for 24 h with the compounds and negative control cells (no compound control) were treated with SFM only (incubated at 37 °C). […] The percentage of cytostasis was calculated with the following equation: […] Data were evaluated with Excel (version: 365; Microsoft, Redmond, WA, USA) and the curves were defined using Microcal OriginPro (version: 2018; OriginLab, Northampton, MA, USA) software. In each case, two independent experiments were carried out with four parallel measurements and the mean IC50 values together with ±SD were represented. The Excel (version: 365) (Microsoft, Redmond, WA, USA) and Microcal OriginPro (version: 2018) (OriginLab, Northampton, MA, USA) softwares were used for data evaluation.

[2] = tested on: HL-60 (acute promyelocytic leukaemia); test: as above; type: cell-based; details: Homo sapiens; HL-60, 24 h treatment, then three days culture, n = 2; read-out: IC50 ± SD
Description: as §1

[3] = tested on: U87 (glioblastoma); test: as above; type: cell-based; details: Homo sapiens; U87, 24 h treatment, then three days culture, n = 2; read-out: IC50 ± SD
Description: as §1

[4] = tested on: A2058 (melanoma, derived from metastatic site: lymph node); test: as above; type: cell-based; details: Homo sapiens; A2058, 24 h treatment, then three days culture, n = 2; read-out: IC50 ± SD
Description: as §1

[5] = tested on: HepG2 (hepatocellular carcinoma); test: as above; type: cell-based; details: Homo sapiens; HepG2, 24 h treatment, then three days culture, n = 2; read-out: IC50 ± SD
Description: as §1

[6] = parameters: method as in PMID 12350169; details: cited from earlier work
[7] = Storage stability in solutions and hornbeam bark extracts (UHPLC-DAD); type: physicochemical; details: for k / t1/2: storage 23 weeks
Description: For the analysis of the samples from the chemical stability as well as the PAMPA studies, sample concentrations were determined using our previously developed ultrahigh-performance liquid chromatography–diode array detection (UHPLC-DAD) method validated for linearity, precision and accuracy. Briefly, an ACQUITY UPLC H-Class PLUS System hyphenated with a quaternary solvent delivery pump (QSM), an auto-sampler manager (FTN), a column compartment (CM) and a photodiode array (PDA) detector (Waters Corporation) was employed. Stationary phase: Acquity BEH C18 column (100 × 2.1 mm i.d., 1.7 µm; Waters Corporation), column temperature: 30 °C. The mobile phase consisted of 0.3% acetic acid in water (eluent A) and acetonitrile (eluent B). The following gradient elution was applied at a flow rate of 0.3 mL/min: 0 min 12.0% B, 19.0 min 13.5% B, 25.5 min 75.0% B, 26.0 min 100.0% B, 28.0 min 100.0% B, 28.5 min 12.0% B.
We used the following equations to calculate the first-order reaction rate constant (k) and the half-life (t1/2) indicating the time required to reduce the concentration of diarylheptanoids by 50% [29]:ln (ct/c0) = −k × t(1) t1/2 = −ln 0.5 × k^−1(2) where ct is the concentration of the diarylheptanoids at time t, c0 is the initial concentration, k is the reaction rate constant, t is the treatment time.
The chemical stability of the isolated compounds in solutions was examined at a concentration of 50 µg/mL in methanol and water (in the latter case using methanol as co-solvent, final composition: water-methanol 90:10, v/v). Furthermore, the methanol and ethyl acetate extracts of C. betulus bark (concentration 4 mg/mL) were also studied in order to assess the effects of the accompanying substances. The storage stability studies were performed at a neutral pH value. All solutions were filtered through Phenex-RC 15 mm, 0.2 μm syringe filters (Gen-Lab Ltd., Budapest, Hungary). The samples were prepared in triplicate and stored protected from light at 22 ± 2.0 °C, 5 ± 1.5 °C and −15 ± 2.0 °C for 23 weeks. Quantities of the analytes of interest were quantified at weeks 12 and 23 using the abovementioned UHPLC-DAD method (see Section 3.4).
The effects of the temperature and the medium (i.e., solvent and accompanying substances) were analysed through one-way analysis of variance (ANOVA) followed by Tukey’s post hoc HSD test (p < 0.05). To establish the kinetic parameters t1/2 and k, Equations (1) and (2) were applied, respectively.

O=C1C[C@H](O)[C@@H](O)Cc2ccc(O)c(c2)-c2cc(ccc2O)C[C@H]1O [Compound 1, carpinontriol A]
IC50 [1]: > 100 µM | IC50 [2]: > 100 µM | IC50 [3]: > 100 µM | IC50 [4]: 14.9 ± 2.3 µM | IC50 [5]: > 100 µM | antioxidant activity (in words) [6]: only weak antioxidant activity | k ([7]; 5 °C, SA (aqueous solution)): 4.47 × 10^−3 Week^−1 | t1/2 ([7]; 5 °C, SA (aqueous solution)): 147.48 Week | k ([7]; 5 °C, SM (methanol solution)): 1.40 × 10^−2 Week^−1 | concentration as compared to the initial value ([7]; 12 weeks, 5 °C, EE (ethyl acetate extract of bark)): 104.6 ± 1.0 ^#bcg % | concentration as compared to the initial value ([7]; 12 weeks, 5 °C, EM (methanol extract of bark)): 110.1 ± 6.2 ^bc % | concentration as compared to the initial value ([7]; 12 weeks, 5 °C, SA (aqueous solution)): 91.4 ± 0.2 ^#def % | concentration as compared to the initial value ([7]; 12 weeks, 5 °C, SM (methanol solution)): 90.8 ± 2.3 ^#def % | concentration as compared to the initial value ([7]; 12 weeks, 22 °C, EE (ethyl acetate extract of bark)): 110.9 ± 3.6 ^#bc % | concentration as compared to the initial value ([7]; 12 weeks, 22 °C, EM (methanol extract of bark)): 114.0 ± 2.2 ^#b % | concentration as compared to the initial value ([7]; 12 weeks, 22 °C, SA (aqueous solution)): 61.7 ± 5.7 ^#a % | concentration as compared to the initial value ([7]; 12 weeks, 22 °C, SM (methanol solution)): 63.5 ± 8.7 ^#a % | concentration as compared to the initial value ([7]; 12 weeks, −15 °C, EE (ethyl acetate extract of bark)): 100.5 ± 0.5 ^ceg % | concentration as compared to the initial value ([7]; 12 weeks, −15 °C, EM (methanol extract of bark)): 108.7 ± 1.5 ^#bc % | concentration as compared to the initial value ([7]; 12 weeks, −15 °C, SA (aqueous solution)): 93.5 ± 0.4 ^#ef % | concentration as compared to the initial value ([7]; 12 weeks, −15 °C, SM (methanol solution)): 94.0 ± 0.8 ^#efg % | k ([7]; 22 °C, SA (aqueous solution)): 5.97 × 10^−2 Week^−1 | t1/2 ([7]; 22 °C, SA (aqueous solution)): 11.61 Week | k ([7]; 22 °C, SM (methanol solution)): 4.53 × 10^−2 Week^−1 | t1/2 ([7]; 22 °C, SM (methanol solution)): 15.30 Week | concentration as compared to the initial value ([7]; 23 weeks, 5 °C, EE (ethyl acetate extract of bark)): 92.1 ± 1.3 ^#def % | concentration as compared to the initial value ([7]; 23 weeks, 5 °C, EM (methanol extract of bark)): 84.1 ± 1.1 ^#dfi % | concentration as compared to the initial value ([7]; 23 weeks, 5 °C, SA (aqueous solution)): 87.2 ± 0.4 ^#dfi % | concentration as compared to the initial value ([7]; 23 weeks, 5 °C, SM (methanol solution)): 67.1 ± 7.5 ^#aj % | concentration as compared to the initial value ([7]; 23 weeks, 22 °C, EE (ethyl acetate extract of bark)): 81.5 ± 3.9 ^#di % | concentration as compared to the initial value ([7]; 23 weeks, 22 °C, EM (methanol extract of bark)): 77.7 ± 2.9 ^#ij % | concentration as compared to the initial value ([7]; 23 weeks, 22 °C, SA (aqueous solution)): 23.0 ± 0.5 ^#h % | concentration as compared to the initial value ([7]; 23 weeks, 22 °C, SM (methanol solution)): 32.3 ± 6.3 ^#h % | concentration as compared to the initial value ([7]; 23 weeks, −15 °C, EE (ethyl acetate extract of bark)): 91.3 ± 4.2 ^#def % | concentration as compared to the initial value ([7]; 23 weeks, −15 °C, EM (methanol extract of bark)): 88.3 ± 3.4 ^#dfi % | concentration as compared to the initial value ([7]; 23 weeks, −15 °C, SA (aqueous solution)): 93.7 ± 0.3 ^#efg % | concentration as compared to the initial value ([7]; 23 weeks, −15 °C, SM (methanol solution)): 88.9 ± 3.1 ^#dfi % | k ([7]; −15 °C, SA (aqueous solution)): 1.70 × 10^−3 Week^−1 | t1/2 ([7]; −15 °C, SA (aqueous solution)): 407.73 Week | k ([7]; −15 °C, SM (methanol solution)): 3.60 × 10^−3 Week^−1 | t1/2 ([7]; −15 °C, SM (methanol solution)): 192.54 Week
